Test results published in patent US20070032505A1, “Crystalline form of gatifloxacin” (priority 2003, published 2007).
Where “and” joins values, the source holds several entries; their conditions need not be identical. Equal values may be shown once.

How the values were obtained:
[1] = stability test: water content (Karl-Fischer) and powder X-ray diffractogram in contact with the atmosphere at room temperature; type: physicochemical
Excerpt: The new crystalline form of gatifloxacin which is obtainable by this process has an initial water content ranging between 0.8 and 1.6% and stabilises with a water content ranging between 2.5 and 4.5% by weight, when it is in contact with the atmosphere at room temperature and with a relative humidity comprised between 20 and 70%, and it remains stable for at least 2 months in such conditions.
The crystalline form of gatifloxacin object of the present invention is characterized by its powder X-ray diffractogram (FIG. 1), ^13C nuclear magnetic resonance spectrum (FIG. 3) and analysis of water content by the Karl-Fischer method.
For recording the powder X-ray diffractograms a PHILIPS X'Pert automatic diffractometer equipped with a Cu tube and a graphite secondary monochromator of the following technical specifications was used: • Cu wavelength Kα: 1.5419 Å; • receiving slit: 0.1 mm; • Soller: 0.04 radians; • dispersion slit and divergence slit: 1°
The tube worked at 40 kV and 50 mA. Sweeping was carried out continuously in the 2θ interval between 5 and 40° with pass of 0.03° and 1-second pass time.

[2] = disintegration and dissolution rate properties; type: physicochemical; settings: form containing between 2.5 and 4.5% of water by weight

Question: For `COc1c(N2CCNC(C)C2)c(F)cc2c(=O)c(C(=O)O)cn(C3CC3)c12` (centres unmarked) [form I gatifloxacin, 1-cyclopropyl-6-fluoro-1,4-dihydro-ε-methoxy-7-(3-methyl-1-piperazinyl)-4-oxo-3-quinolinecarboxylic acid], which “% water by weight” value ([1]; 3 hours, room temperature, in contact with the atmosphere) is on record?
Answer: The value was 2.2 % by weight.

Question: And the “% water by weight” value ([1]; 6 hours, room temperature, in contact with the atmosphere)?
Answer: The value was 2.3 % by weight.

Question: What about the “% water by weight” value ([1]; 3 days, room temperature, in contact with the atmosphere) of the same compound?
Answer: Its value is 3.22 % by weight and 3.2 % by weight.

Question: What about the “% water by weight” value ([1]; 13 days, room temperature, in contact with the atmosphere) of the same compound?
Answer: Its value is 2.9 % by weight.

Question: What about the “% water by weight” value ([1]; 17 days, room temperature, in contact with the atmosphere) of the same compound?
Answer: The value was 3.0 % by weight.

Question: And the “% water by weight” value ([1]; 68 days, room temperature, in contact with the atmosphere)?
Answer: Its value is 3.3 % by weight.

Question: And the “period of time to stabilise” value ([1]; longer if relative humidity lower than 20%)?
Answer: The value was “three”.

Question: And the “powder X-ray diffractogram over the stability test period” value ([1]; room temperature, in contact with the atmosphere, up to 68 days)?
Answer: The value was “remains substantially unchanged”.

Question: What about the “time the water content remains stable” value ([1]; room temperature, relative humidity between 20 and 70%) of the same compound?
Answer: The value was “at least 2 months”.

Question: What about the “% water by weight” value ([1]; time 0 (at the time of taking it out of the desiccator)) of the same compound?
Answer: Its value is 1.5 % by weight.

Question: What about the “properties of disintegration and dissolution rate” value [2] of the same compound?
Answer: The value was “excellent”.
